From PMC10252594 (Cancers, 2023)
Several values for one entry are separate records, joined by “and”; a condition that tells them apart may be missing. Equal entries are not always repeated. Where two headings read alike, the source gives them in different places.

Legend:
[1] = tested on: LAPC-4 cells; assay: LAPC-4 cell viability proliferation and combination index assays (MTS, 6 days); format: cell-based, human
Procedure: LAPC-4 cells (1 × 10^4 cells/well) were seeded in triplicate in 96-well plates in IMDM (Iscove’s modified Dulbecco’s medium) (90 μL) supplemented (v/v) with 5% fetal FBS, 1% L-glutamine, 1% insulin, and 1% penicillin/streptomycin. The cells were incubated at 37 °C in a 5% CO2 humidified atmosphere for 24 h. […] After 6 days of incubation, the cell proliferation was determined by adding 10 µL of MTS followed by incubation at 37 °C for 4 h. Plates were then analyzed at 490 nm using a Tecan M-200 microplate reader (Männedorf, Switzerland). Using GraphPad Prism 7 software, the IC50 values were calculated. The values represent the average of two independent experiments performed in triplicate. According to the Chou–Talalay method and using the following formula, the CI (combination) was calculated. CI=(D)1/(DX)1+(D)2/(DX)2
Denominators (DX)l and (DX)2 are the doses of individual drugs required to achieve a given effect level, and numerators (D)1 and (D)2 are the concentrations of each drug present in combination to trigger the same effect level. When the drugs interact additively, CI = 1, but a CI < 1 indicates a synergistic interaction, and a CI > 1 indicates an antagonistic effect.

[2] = tested on: LAPC-4 xenografts
From the text: The xenograft experiment was approved by the Université Laval Animal Care Committee (Comité de Protection des Animaux de l’Université Laval, Québec, QC, Canada) and carried out in an animal facility approved by the Canadian Council on Animal Care (CCAC). Homozygous male Balb/c athymic nude mice (~42 days old, weighing approximately 28 g) were obtained from Charles River Inc. (Saint-Constant, QC, Canada) and housed (4 to 5) in vinyl micro-isolated ventilated cages equipped with air lids. Cages were kept in laminar airflow hoods and maintained in pathogen-limiting conditions. The animals were housed under a controlled environment at 22 ± 3 °C with 50 ± 20% relative humidity and light set at 12 h/day (light on at 07:15) during the acclimatization and study periods. Sterile water and rodent food (Rodent Diet #T.2018.15, Harlan Teklad, Madison, WI, USA) were provided ad libitum.
After an acclimatization period of 5 days, the mice were inoculated into both flanks by subcutaneous (SC) injection of 4 × 10^6 LAPC-4 cells (Passage 14) in 0.1 mL of growth medium containing 50% Matrigel (BD Biosciences, Mississauga, ON, Canada) via a 2.5-cm long 22-gauge needle. Two weeks later, mice that developed tumors were randomized according to tumor volume, divided into […] groups (Gr-1 to Gr-8), and treated over a period of 28 days. A bilateral orchiectomy was performed under isoflurane-induced anesthesia for Gr-1 but not for Gr-2 to Gr-8. Both Gr-1 (CTX control (CTL), 9 mice, 16 tumors) and Gr-2 (intact CTL, 9 mice, 18 tumors) were treated with 0.1 mL of the vehicle alone (8% DMSO/92% propylene glycol (PG) administered by gavage (PO). Gr-3 (30 mg/kg/PO, 10 mice, 19 tumors) received 0.843 mg of RM-581. Gr-4 (10 mg/kg/PO, 10 mice, 20 tumors) received 0.281 mg of RM-581. Gr-5 (3 mg/kg/PO, 10 mice, 18 tumors) received 0.084 mg of RM-581. Gr-6 (60 mg/kg/SC, 9 mice, 18 tumors) received 1.686 mg of abiraterone. Gr-7 (60 mg/kg/PO, 9 mice, 17 tumors) received 1.686 mg of abiraterone acetate. Gr-8 (4 mg/kg/IP, 9 mice, 17 tumors) received 0.112 mg of docetaxel.
RM-581 and abiraterone acetate were administered six days a week PO; abiraterone was administered six days a week SC; and docetaxel was administered twice a week by intraperitoneal (IP) injection. RM-581 was first dissolved in DMSO, and thereafter we added PG to obtain the appropriate concentration in the vehicle fluid (8% DMSO/92% PG). Abiraterone acetate and abiraterone were dissolved in 0.3% hydroxypropyl cellulose in saline (0.9% NaCl), while docetaxel was first dissolved in DMSO, and thereafter we added phosphate-buffered saline (PBS) to obtain the proper concentration in the carrier fluid (0.5% DMSO/99.5% PBS). All solutions were prepared one day prior to the initiation of treatment and stored at 4 °C under constant agitation.
The mice were weighed at the start and end of the protocol. Tumor area (mm^2) was calculated twice a week using two perpendicular diameters (L and W), which were recorded using a caliper, and the formula L/2 × W/2 × π. The area measured on the first day of treatment was fixed at 100%. At the end of the studies and 3 h after the last treatment, the mice were terminally anesthetized, and their final body weights were measured. Tumors, liver, kidney, and total prostate were collected from mice during necropsy, while blood was collected by cardiac puncture. Tissues and plasma were immediately frozen at −80 °C until analysis.

[3] = tested on: LAPC-4 xenografts; assay: Cholesterol/lipid panel in plasma (method B, hospital laboratory); format: in vivo, mice
Procedure: Total cholesterol, triglycerides, cholesterol-HDL (high-density lipoproteins), cholesterol-LDL (low-density lipoproteins), cholesterol non-HDL, and the ratio of total cholesterol/cholesterol-HDL were determined in the plasma of mice treated PO with RM-581 (3, 10, and 30 mg/kg) or abiraterone acetate (60 mg/kg). Analyses were performed at the CHU de Québec/L’Enfant-Jésus (Medical Hospital Laboratory; Project N°: 9014625056) using a Cobas Lipid Panel from Roche.

For C#C[C@]1(O)CC[C@H]2[C@@H]3CCc4cc(OC)c(N5CCN(C(=O)[C@@H]6CCCN6C(=O)c6ccc7ccccc7n6)CC5)cc4[C@H]3CC[C@@]21C [RM-581], the IC50 ([1]; Homo sapiens, LAPC4, 144 h, LAPC-4, six days of treatment, read-out: IC50, single experiments (Figure 2A)) was 450 nM, the IC50 ([1]; Homo sapiens, LAPC4, 144 h, LAPC-4, six days, slightly different culture conditions, read-out: IC50, single experiments (Figure 3)) was 510 nM and the IC50 ([1]; Homo sapiens, LAPC4, 144 h, LAPC-4, six days, slightly different culture conditions, read-out: Mean IC50 (Figure 3)) was 570 ± 140 nM. The IC50 ([1]; Homo sapiens, LAPC4, 144 h, LAPC-4, six days, single drugs and 1:1 combinations, read-out: IC50 (Figure 2B)) was 560 nM, the IC50 ([1]; Homo sapiens, LAPC4, LAPC-4, read-out: IC50 in LAPC-4 cells, approximate summary value) was ~500 nM and the IC50 ([1]; LAPC-4, six days of treatment, read-out: IC50, single experiments (Figure 2A)) was 300 nM and 550 nM. For the same molecule, the IC50 ([1]; LAPC-4, six days, slightly different culture conditions, read-out: IC50, single experiments (Figure 3)) was 470 nM and 730 nM, the “time to significant difference with intact (untreated) group” value (shortened to “time to significant difference”) ([2]; 3 mg/kg PO) was 14 days and the tumor growth ([2]; 3 mg/kg PO, 6 days per week) was “tumors returned to their original size after 22 days”. For the same molecule, the “time to significant difference” value ([2]; 10 mg/kg PO) was 7 days, the “tumor size compared with 30 mg/kg group” value ([2]; 10 mg/kg PO, 6 days per week, day 28) was “identical at the end of the protocol” and the “time to significant difference” value ([2]; 30 mg/kg PO) was 7 days. The “reduction in the initial tumor size at end of protocol” value ([2]; 30 mg/kg PO, 6 days per week, day 28) was 88%, the “effective oral doses for tumor regression” value ([2]; LAPC-4 xenograft, PO) was 3 to 30 mg/kg and the “T-CHOL (total cholesterol), plasma” value ([3]; 10 mg/kg PO, NS vs CTL) was 1182 ± 338 (NS) µg/mL. The “plasma triglycerides, cholesterol-HDL, -LDL, non-HDL, ratio total cholesterol/cholesterol-HDL vs control” value ([3]; Figure S3) was “no significant difference”.
